# Test results from patent US20230339886A1 (University of Florida Research Foundation, Incorporated, priority 2020, published 2023).
# Like-named read-outs stand apart in the source and are kept apart here.
# Target: T1, REV-ERBα LBD (human; residues 281-614 Δ324-422) (Homo sapiens, UniProt P20393, DEL324-422)
# T1 construct: 6×Histag-REV-ERBα LBD (human; residues 281-614 Δ324-422); made in house; host or cells: Escherichia coli
# Assay: TR-FRET corepressor interaction assay (REV-ERBα LBD, FITC-SMRT peptide)
# Assay type: biochemical
# In short: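 Compound serial dilutions (in DMSO, triplicate) incubated 2 h at 4 °C; Tb donor excited at 340 nm, emission read at 495 nm and FITC acceptor at 520 nm. TR-FRET ratio (520/495 nm) plotted against ligand concentration and fitted to a sigmoidal dose-response curve.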
# [1] = Table 2, read-out: REVERBα agonism (EC50 class, FRET assay)
# [2] = FITC-SMRT peptide, read-out: REVERBα agonism (EC50 class, FRET assay)
# T1 sequence (P20393 with tags, fused parts or gaps DEL324-422): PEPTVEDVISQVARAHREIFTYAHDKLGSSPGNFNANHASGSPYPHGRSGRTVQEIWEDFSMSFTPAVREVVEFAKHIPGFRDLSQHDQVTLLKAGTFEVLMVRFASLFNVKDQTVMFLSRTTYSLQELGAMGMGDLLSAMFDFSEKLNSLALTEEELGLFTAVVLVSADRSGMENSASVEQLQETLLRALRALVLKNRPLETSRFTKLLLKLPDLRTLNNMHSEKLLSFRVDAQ
# T1 sequence (Q9Y618 2335-2356 partner limits assumed): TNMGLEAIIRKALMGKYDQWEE
Compound,EC50 [1],EC50 [2]
"CC(C)(C)Cn1cc(CCNS(=O)(=O)C2CC2)c2ccc(-c3ccc(C(F)(F)F)cc3C#N)cc21 [Example 400, N-(2-(6-(2-cyano-4-(trifluoromethyl)phenyl)-1-neopentyl-1H-indol-3-yl)ethyl)cyclopropanesulfonamide]",< 500 nM,–
"CC(C)(C)Cc1cn(CCNS(=O)(=O)C2CC2)c2ccc(-c3ccc(Cl)cc3C#N)cc12 [Example 401, N-(2-(5-(4-chloro-2-cyanophenyl)-3-neopentyl-1H-indol-1-yl)ethyl)cyclopropanesulfonamide]",< 500 nM,–
"Cc1ccc(-c2ccc3c(c2)c(CC(C)(C)C)cn3CCNS(=O)(=O)C2CC2)c(C(F)(F)F)c1 [Example 402, N-(2-(5-(4-methyl-2-(trifluoromethyl)phenyl)-3-neopentyl-1H-indol-1-yl)ethyl)cyclopropanesulfonamide]",< 500 nM,–
"CC(CO)(CCl)Cn1cc([C@H](NS(=O)(=O)C2CC2)C(F)(F)F)c2cc(F)c(-c3ccccc3C(F)(F)F)cc21 (stereo partly drawn) [Example 404, N-[(1S)-1-[1-[2-(chloromethyl)-3-hydroxy-2-methyl-propyl]-5-fluoro-6-[2-(trifluoromethyl)phenyl]indol-3-yl]-2,2,2-trifluoro-ethyl]cyclopropanesulfonamide]",500 to 3000 nM,–
"CC(C)(C)Cn1cc(CC2(NS(=O)(=O)C3CC3)CC2)c2ccc(-c3ccccc3C(F)(F)F)cc21 [Example 406, N-(1-((1-neopentyl-6-(2-(trifluoromethyl)phenyl)-1H-indol-3-yl)methyl)cyclopropyl)cyclopropanesulfonamide]",> 3000 nM,–
"CC(C)Cn1cc(C(CS(C)(=O)=O)C(F)(F)F)c2ccc(-c3ccccc3C(F)(F)F)cc21 (stereo not shown) [Example 407, 1-isobutyl-3-(1,1,1-trifluoro-3-(methylsulfonyl)propan-2-yl)-6-(2-(trifluoromethyl)phenyl)-1H-indole]",> 3000 nM,–
"Cc1ccc(-c2ccc3c(CCS(=O)(=O)C4CC4)cn(CC(C)(C)C)c3c2)c(C(F)(F)F)c1 [Example 408, 3-(2-(cyclopropylsulfonyl)ethyl)-6-(4-methyl-2-(trifluoromethyl)phenyl)-1-neopentyl-1H-indole]",< 500 nM,–
"CC(C)Cn1cc([C@H](NS(=O)(=O)C2CC2)C(F)(F)F)c2ccc(-c3ccccc3C(F)(F)F)cc21 [Example 410, (S)—N-(2,2,2-trifluoro-1-(1-isobutyl-6-(2-(trifluoromethyl)phenyl)-1H-indol-3-yl)ethyl)cyclopropanesulfonamide]",< 500 nM,–
"CC(C)(C)Cn1cc([C@H](NS(=O)(=O)C2CCC2)C(F)(F)F)c2ccc(-c3c(F)cccc3Cl)cc21 [Example 411, (S)—N-(1-(6-(2-chloro-6-fluorophenyl)-1-neopentyl-1H-indol-3-yl)-2,2,2-trifluoroethyl)cyclobutanesulfonamide]",< 500 nM,–
"COC(C)(C)Cn1cc([C@H](NS(=O)(=O)C2CCC2)C(F)(F)F)c2ccc(-c3ccccc3C(F)(F)F)nc21 [Example 413, (S)—N-(2,2,2-trifluoro-1-(1-(2-methoxy-2-methylpropyl)-6-(2-(trifluoromethyl)phenyl)-1H-pyrrolo[2,3-b]pyridin-3-yl)ethyl)cyclobutanesulfonamide]",< 500 nM,–
"N#CC1(Cn2cc([C@H](NS(=O)(=O)C3CCC3)C(F)(F)F)c3ccc(-c4ccccc4C(F)(F)F)nc32)CC1 [Example 414, (S)—N-(1-(1-((1-cyanocyclopropyl)methyl)-6-(2-(trifluoromethyl)phenyl)-1H-pyrrolo[2,3-b]pyridin-3-yl)-2,2,2-trifluoroethyl)cyclobutanesulfonamide]",< 500 nM,–
"CC(C)c1ccc2c([C@H](NS(=O)(=O)C3CCC3)C(F)(F)F)cn(CC(C)(C)C)c2c1 [Example 415, (S)—N-(2,2,2-trifluoro-1-(6-isopropyl-1-neopentyl-1H-indol-3-yl)ethyl)cyclobutanesulfonamide]",500 to 3000 nM,–
"CC(C)(C)Cn1cc([C@H](NS(=O)(=O)C2CCC2)C(F)(F)F)c2ccc(C(F)(F)F)cc21 [Example 416, (S)—N-(2,2,2-trifluoro-1-(1-neopentyl-6-(trifluoromethyl)-1H-indol-3-yl)ethyl)cyclobutanesulfonamide]",> 3000 nM,–
"CC(C)S(=O)(=O)NCCn1cc(CC(C)(C)C)c2cc(-c3ccc(C(F)(F)F)cc3C(F)(F)F)ccc21 [Example 417, N-(2-(5-(2,4-bis(trifluoromethyl)phenyl)-3-neopentyl-1H-indol-1-yl)ethyl)propane-2-sulfonamide]",< 500 nM,–
"CC(C)(C)Cc1cn(CCNS(=O)(=O)C2CCC2)c2ccc(-c3ccc(C(F)(F)F)cc3C(F)(F)F)cc12 [Example 418, N-(2-(5-(2,4-bis(trifluoromethyl)phenyl)-3-neopentyl-1H-indol-1-yl)ethyl)cyclobutanesulfonamide]",< 500 nM,–

# More lines, now with the values ahead:
EC50 [1],EC50 [2],Compound
500 to 3000 nM,–,"CC(C)(C)Cn1cc([C@H](NS(=O)(=O)C2CC(F)(F)C2)C(F)(F)F)c2ccc(-c3ccccc3C(F)(F)F)cc21 [Example 419, (S)-3,3-difluoro-N-(2,2,2-trifluoro-1-(1-neopentyl-6-(2-(trifluoromethyl)phenyl)-1H-indol-3-yl)ethyl)cyclobutane-1-sulfonamide]"
< 500 nM,–,"CC(NS(=O)(=O)C1CC1)c1cn(CC(C)(C)C)c2cc(-c3ccccc3C(F)(F)F)ccc12 (stereo not shown) [Example 420, N-(1-(1-neopentyl-6-(2-(trifluoromethyl)phenyl)-1H-indol-3-yl)ethyl)-cyclopropanesulfonamide]"
< 500 nM,–,"O=S(=O)(N[C@@H](c1cn(CC2CCCC2)c2cc(-c3ccccc3C(F)(F)F)c(F)cc12)C(F)(F)F)C1CCC1 [Example 421, (S)—N-(1-(1-(cyclopentylmethyl)-5-fluoro-6-(2-(trifluoromethyl)phenyl)-1H-indol-3-yl)-2,2,2-trifluoroethyl)cyclobutanesulfonamide]"
< 500 nM,–,"O=S(=O)(N[C@@H](c1cn(CC2CCCC2)c2cc(-c3ccccc3C(F)(F)F)c(F)cc12)C(F)(F)F)C1CC1 [Example 422, (S)—N-(1-(1-(cyclopentylmethyl)-5-fluoro-6-(2-(trifluoromethyl)phenyl)-1H-indol-3-yl)-2,2,2-trifluoroethyl)cyclopropanesulfonamide]"
–,< 500 nM,"CC(NS(=O)(=O)C1CC1)c1cn(CC(C)(C)C)c2cc(-c3ccccc3C(F)(F)F)c(F)cc12 (stereo not shown) [Example 423, N-(1-(5-fluoro-1-neopentyl-6-(2-(trifluoromethyl)phenyl)-1H-indol-3-yl)ethyl)cyclopropanesulfonamide]"
–,< 500 nM,"CC(C)(C)Cn1cc(C(NS(=O)(=O)C2CCC2)C2CC2)c2ccc(-c3ccccc3C(F)(F)F)cc21 (stereo not shown) [Example 424, N-(cyclopropyl(1-neopentyl-6-(2-(trifluoromethyl)phenyl)-1H-indol-3-yl)methyl)cyclobutanesulfonamide]"
–,< 500 nM,"CCC(NS(=O)(=O)C1CCC1)c1cn(CC(C)(C)C)c2cc(-c3ccccc3C(F)(F)F)ccc12 (stereo not shown) [Example 425, N-(1-(1-neopentyl-6-(2-(trifluoromethyl)phenyl)-1H-indol-3-yl)propyl)cyclobutanesulfonamide]"
–,500 to 3000 nM,"CC(C)(C)Cn1cc([C@H](NS(=O)(=O)C2CC2(C)C)C(F)(F)F)c2ccc(-c3ccccc3C(F)(F)F)cc21 (stereo partly drawn) [Example 426, 2,2-dimethyl-N—((S)-2,2,2-trifluoro-1-(1-neopentyl-6-(2-(trifluoromethyl)phenyl)-1H-indol-3-yl)ethyl)cyclopropane-1-sulfonamide]"
–,< 500 nM,"CC(C)(C)Cn1cc([C@H](NS(=O)(=O)C2CCC2)C(F)(F)F)c2ccc(C3CCCC3)nc21 [Example 427, (S)—N-(1-(6-cyclopentyl-1-neopentyl-1H-pyrrolo[2,3-b]pyridin-3-yl)-2,2,2-trifluoroethyl)cyclobutanesulfonamide]"
–,< 500 nM,"CC(C)(C)Cn1cc([C@H](NS(=O)(=O)C2CCC2)C(F)(F)F)c2cc(F)c(C3CCCC3)cc21 [Example 428, (S)—N-(1-(6-cyclopentyl-5-fluoro-1-neopentyl-1H-indol-3-yl)-2,2,2-trifluoroethyl)cyclobutanesulfonamide]"
–,< 500 nM,"CC(C)(C)Cn1cc([C@H](CF)NS(=O)(=O)C2CCC2)c2ccc(-c3ccccc3C(F)(F)F)cc21 [Example 429, (R)—N-(2-fluoro-1-(1-neopentyl-6-(2-(trifluoromethyl)phenyl)-1H-indol-3-yl)ethyl)cyclobutanesulfonamide]"
–,> 3000 nM,"CCOC(=O)[C@@H](NS(=O)(=O)C1CC1)c1cn(CC(C)(C)C)c2cc(-c3ccccc3C(F)(F)F)ccc12 [Example 430, ethyl (S)-2-(cyclopropanesulfonamido)-2-(1-neopentyl-6-(2-(trifluoromethyl)phenyl)-1H-indol-3-yl)acetate]"
–,> 3000 nM,"CC(C)(C)Cn1cc([C@H](NS(=O)(=O)C2CC2)C(=O)O)c2ccc(-c3ccccc3C(F)(F)F)cc21 [Example 431, (S)-2-(cyclopropanesulfonamido)-2-(1-neopentyl-6-(2-(trifluoromethyl)phenyl)-1H-indol-3-yl)acetic acid]"
–,< 500 nM,"CC(C)(C)Cn1cc([C@@H](CO)NS(=O)(=O)C2CC2)c2ccc(-c3ccccc3C(F)(F)F)cc21 [Example 432, (S)—N-(2-hydroxy-1-(1-neopentyl-6-(2-(trifluoromethyl)phenyl)-1H-indol-3-yl)ethyl)cyclopropanesulfonamide]"
–,< 500 nM,"CC(NS(=O)(=O)C12CC(C1)C2)c1cn(CC(C)(C)C)c2cc(-c3ccccc3C(F)(F)F)ccc12 (stereo not shown) [Example 433, N-(1-(1-neopentyl-6-(2-(trifluoromethyl)phenyl)-1H-indol-3-yl)ethyl)bicyclo[1.1.1]pentane-1-sulfonamide]"
–,> 3000 nM,"NC(=O)c1cccc(F)c1-c1ccc2c([C@H](NS(=O)(=O)C3CCC3)C(F)(F)F)cn(C3CCOCC3)c2c1 [Example 434, (S)-2-(3-(1-(cyclobutanesulfonamido)-2,2,2-trifluoroethyl)-1-(tetrahydro-2H-pyran-4-yl)-1H-indol-6-yl)-3-fluorobenzamide]"
